What was measured:
Assay type in all cases: binding
P2RY14 = molecular target: T1, P2RY14 (Homo sapiens, UniProt Q15391); assay: NanoBRET screen HiBiT-P2RY14 in HEK293
T1 construct: purchased Promega (in-house HiBiT-GPCR construct library, NanoBRET)
T1 sequence (Q15391 1-338): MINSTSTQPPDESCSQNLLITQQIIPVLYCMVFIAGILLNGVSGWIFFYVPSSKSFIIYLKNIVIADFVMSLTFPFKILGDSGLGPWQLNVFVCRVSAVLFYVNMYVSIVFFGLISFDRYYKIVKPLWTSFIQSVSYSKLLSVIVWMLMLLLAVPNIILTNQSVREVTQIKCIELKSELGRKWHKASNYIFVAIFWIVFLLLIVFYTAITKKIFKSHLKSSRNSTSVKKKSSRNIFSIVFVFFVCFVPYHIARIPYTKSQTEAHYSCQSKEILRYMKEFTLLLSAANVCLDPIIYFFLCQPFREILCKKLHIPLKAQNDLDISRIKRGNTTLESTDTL
Description: (§1) Each tracer candidate was screened across the entire library of HiBiT-GPCR constructs using NanoBRET as the detection modality. As depicted in Figure 4A, the specificity of interactions was evaluated through decrease in BRET due to competitive displacement of a bound tracer by excess parental compound. Each tracer was analyzed for binding to each HiBiT-GPCR fusion in the absence and in the presence of competing parental compound. Briefly, HEK293 cells were transfected with HiBiT-GPCR constructs diluted into promoterless DNA to reduce expression and maximize translocation to the cell surface. Each tracer candidate was then screened at concentrations of 1 μM and 0.1 μM across cells expressing these fusions. Cells were treated for 1.5 h with tracer either alone or in the presence of 20 μM competing parental compound (i.e., control). BRET was measured upon addition of purified LgBiT and subsequent complementation with HiBiT genetically fused to a GPCR. The specificity of interactions was assessed through a decrease in BRET signal due to competitive displacement of the bound tracer. To further gauge the robustness of these interactions, the fold response over the control (i.e., BRETtracer/BRETcontrol) was calculated. We chose a 1.5-fold response, which translates to ≥7-fold signal over noise as the minimal threshold required to score an interaction as positive. […]. Below we highlight the screening results obtained for our exemplary fluorescent tracers based on Clozapine, Amitriptyline and AZD1283.
(§2) HiBiT-GPCR DNA constructs were diluted in 10 mM Tris pH 8 to a final concentration of 0.01 μg/μL, arrayed in 96-well plates and stored at −20 °C. For transfection, HEK293 cells were suspended in Opti-MEM (without phenol red) supplemented with 2% fetal bovine serum (Seradigm) and 100 units/mL penicillin–streptomycin (Gibco) at a final concentration of 220,000 cells/mL and dispensed into white 96-well plates at 90 μL/well. Subsequent transfections and screens were carried using an Agilent Bravo Automated Liquid Handling Platform. First, the 96-well HiBiT DNA arrays were diluted 25-fold in Opti-MEM (without serum or phenol red) to a final concentration of 0.0004 μg/μL and 20 μL of the diluted DNAs were transferred into new 96-well plates. Next, promoterless carrier DNA (1 μg/μL) was diluted 25-fold (0.04 μg/μL) and then dispensed into the diluted arrays at 20 μL/well. Following brief mixing, Viafect transfection reagent (Promega) diluted 16-fold into Opti-MEM was dispensed into the plates at 40 μL/well. After mixing by pipetting, plates were incubated for 10 min on the pipetting station deck. The DNA-transfection reagent complexes were then added to plates containing cells. To facilitate the screen, 10 μL of DNA-transfection reagent complexes were added in duplicates to the top 4 and bottom 4 rows, resulting in two identical 48-well arrays per plate. Plates with transfected cells were incubated for 18–20 h at 37 °C/5% CO2. A screen of each tracer across the entire library using two different concentrations requires duplicate plates of transfected cells. Depending on the number of tracers being screened, transfections can be scaled up using the same ratios. The next day, for each tracer, four 20× screening solutions in tracer dilution buffer (Promega) were prepared: two duplicates at final concentration of 20 μM and two duplicates at a final concentration of 2 μM. A competing unmodified compound was added to one of each duplicate at a final concentration of 400 μM. The four resulting solutions were diluted 4-fold in Opti-MEM without serum or phenol red to generate 5× solutions (5 µM and 0.5 µM tracer +/− 100 μM competing compound). To screen the library, a BioTek MultiFlo FX liquid dispenser was used to dispense 22.5 µL of tracer solution to the top 4 rows and 22.5 µL tracer + competing compound solution to the 4 bottom rows. Plates were briefly mixed on an orbital shaker and incubated for 1.5 h at room temperature. […]

CCR9 = molecular target: T2, CCR9 (Homo sapiens, UniProt P51686); assay: NanoBRET screen HiBiT-CCR9 in HEK293
T2 construct: purchased Promega (in-house HiBiT-GPCR construct library, NanoBRET)
T2 sequence (P51686 1-369): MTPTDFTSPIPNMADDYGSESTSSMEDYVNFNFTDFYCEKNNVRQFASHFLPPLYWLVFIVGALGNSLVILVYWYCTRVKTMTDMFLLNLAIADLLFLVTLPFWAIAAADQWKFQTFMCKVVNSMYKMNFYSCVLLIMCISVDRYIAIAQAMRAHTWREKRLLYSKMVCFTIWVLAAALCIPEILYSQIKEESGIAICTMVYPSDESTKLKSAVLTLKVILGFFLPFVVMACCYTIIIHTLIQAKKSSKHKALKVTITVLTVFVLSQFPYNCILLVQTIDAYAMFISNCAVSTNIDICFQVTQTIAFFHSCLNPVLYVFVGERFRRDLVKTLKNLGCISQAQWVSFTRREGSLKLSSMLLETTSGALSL
Description: as §1, §2

CCR5 = molecular target: T3, CCR5 (Homo sapiens, UniProt P51681); assay: NanoBRET screen HiBiT-CCR5 in HEK293
T3 construct: purchased Promega (in-house HiBiT-GPCR construct library, NanoBRET)
Description: as §1, §2

BDKRB1 = molecular target: T4, BDKRB1 (Homo sapiens, UniProt P46663); assay: NanoBRET screen HiBiT-BDKRB1 in HEK293
T4 construct: purchased Promega (in-house HiBiT-GPCR construct library, NanoBRET)
T4 sequence (P46663 1-353): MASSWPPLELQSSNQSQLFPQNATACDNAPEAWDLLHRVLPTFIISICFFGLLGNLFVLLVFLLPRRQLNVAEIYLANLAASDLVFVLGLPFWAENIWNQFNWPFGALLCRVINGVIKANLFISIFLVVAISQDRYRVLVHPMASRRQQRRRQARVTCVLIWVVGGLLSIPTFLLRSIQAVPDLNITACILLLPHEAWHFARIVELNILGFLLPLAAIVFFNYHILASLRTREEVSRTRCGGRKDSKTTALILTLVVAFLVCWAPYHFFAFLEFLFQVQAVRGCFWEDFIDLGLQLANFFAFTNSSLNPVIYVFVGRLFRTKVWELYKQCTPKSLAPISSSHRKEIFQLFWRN
Description: as §1, §2

T3 sequence (P51681 whole entry): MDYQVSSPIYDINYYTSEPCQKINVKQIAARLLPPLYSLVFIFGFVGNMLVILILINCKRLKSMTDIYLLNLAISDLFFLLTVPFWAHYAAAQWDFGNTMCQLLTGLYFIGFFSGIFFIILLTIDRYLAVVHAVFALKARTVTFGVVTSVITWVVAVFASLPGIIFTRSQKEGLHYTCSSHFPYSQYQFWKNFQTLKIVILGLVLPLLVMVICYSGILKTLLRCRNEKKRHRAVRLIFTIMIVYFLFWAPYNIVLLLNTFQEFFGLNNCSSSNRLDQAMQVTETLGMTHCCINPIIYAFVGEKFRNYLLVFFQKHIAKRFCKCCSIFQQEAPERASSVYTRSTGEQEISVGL

For O=C(CCOCCOCCOCCOCCNC(=O)CCc1ccc2n1[B-](F)(F)[N+]1=C(c3ccc[nH]3)C=CC1=C2)NCCCN1CCN(C2=Nc3ccccc3Oc3ccc(Cl)cc32)CC1 [Loxapine-a-2-NB590], the “NanoBRET Fold Response” value (P2RY14; P2RY14, tracer 0.1μM) was 0.94, the “NanoBRET Fold Response” value (P2RY14; P2RY14, tracer 1μM) was 0.98 and the “NanoBRET Fold Response” value (CCR9; CCR9, tracer 0.1μM) was 1.02. For the same molecule, the “NanoBRET Fold Response” value (CCR9; CCR9, tracer 1μM) was 0.91, the “NanoBRET Fold Response” value (CCR5; CCR5, tracer 0.1μM) was 1.00 and the “NanoBRET Fold Response” value (CCR5; CCR5, tracer 1μM) was 1.34. For the same molecule, the “NanoBRET Fold Response” value (BDKRB1; BDKRB1, tracer 0.1μM) was 1.05 and the “NanoBRET Fold Response” value (BDKRB1; BDKRB1, tracer 1μM) was 1.27.

For CN1CCN(C2=Nc3cc(Cl)ccc3N(CC(=O)NCCOCCOCCOCCOCCNC(=O)CCc3ccc4n3[B-](F)(F)[N+]3=C(c5ccc[nH]5)C=CC3=C4)c3ccccc32)CC1 [Clozapine-c-2-NB590], the “NanoBRET Fold Response” value (P2RY14; P2RY14, 0.1μM tracer) was 0.96, the “NanoBRET Fold Response” value (P2RY14; P2RY14, 1μM tracer) was 0.89 and the “NanoBRET Fold Response” value (CCR9; CCR9, 0.1μM tracer) was 1.02. The “NanoBRET Fold Response” value (CCR9; CCR9, 1μM tracer) was 0.87, the “NanoBRET Fold Response” value (CCR5; CCR5, 0.1μM tracer) was 0.98 and the “NanoBRET Fold Response” value (CCR5; CCR5, 1μM tracer) was 0.95. The “NanoBRET Fold Response” value (BDKRB1; BDKRB1, 0.1μM tracer) was 1.06 and the “NanoBRET Fold Response” value (BDKRB1; BDKRB1, 1μM tracer) was 1.07.

With CN(C)CCC=C1c2ccccc2CCc2ccc(C(=O)NCCNC(=O)CCOCCOCCOCCOCCNC(=O)CCc3ccc4n3[B-](F)(F)[N+]3=C(c5ccc[nH]5)C=CC3=C4)cc21 [Amitriptyline-a-2-NB590] the “NanoBRET Fold Response” value (P2RY14; tracer at 1μM) was 1.09, the “NanoBRET Fold Response” value (CCR9; tracer at 0.1μM) was 0.99 and the “NanoBRET Fold Response” value (CCR9; tracer at 1μM) was 1.05. The “NanoBRET Fold Response” value (CCR5; tracer at 0.1μM) was 0.99, the “NanoBRET Fold Response” value (CCR5; tracer at 1μM) was 1.01 and the “NanoBRET Fold Response” value (BDKRB1; tracer at 0.1μM) was 1.13. The “NanoBRET Fold Response” value (BDKRB1; tracer at 1μM) was 1.04.

For Cc1nc2n(c(=O)c1CCN1CCC(c3noc4cc(F)ccc34)CC1)CCCC2OC(=O)NCCOCCOCCOCCOCCNC(=O)CCc1ccc2n1[B-](F)(F)[N+]1=C(c3ccc[nH]3)C=CC1=C2 (stereo not drawn) [Risperidone-2-NB590], the “NanoBRET Fold Response” value (P2RY14; P2RY14, tracer 0.1μM) was 1.02, the “NanoBRET Fold Response” value (P2RY14; P2RY14, tracer 1μM) was 0.93 and the “NanoBRET Fold Response” value (CCR9; CCR9, tracer 0.1μM) was 1.02. For the same molecule, the “NanoBRET Fold Response” value (CCR9; CCR9, tracer 1μM) was 0.94, the “NanoBRET Fold Response” value (CCR5; CCR5, tracer 0.1μM) was 0.96 and the “NanoBRET Fold Response” value (CCR5; CCR5, tracer 1μM) was 0.90. For the same molecule, the “NanoBRET Fold Response” value (BDKRB1; BDKRB1, tracer 0.1μM) was 1.28 and the “NanoBRET Fold Response” value (BDKRB1; BDKRB1, tracer 1μM) was 0.77.

With COc1ccc2[nH]c(-c3ccc(CNC(=O)CCOCCOCCOCCOCCNC(=O)CCc4ccc5n4[B-](F)(F)[N+]4=C(c6ccc[nH]6)C=CC4=C5)cc3)c(CCNC(C)=O)c2n1 [AzomelatoninICO9-2-NB590] the “NanoBRET Fold Response” value (P2RY14; 0.1μM tracer) was 1.21, the “NanoBRET Fold Response” value (P2RY14; 1μM tracer) was 1.13 and the “NanoBRET Fold Response” value (CCR9; 0.1μM tracer) was 0.97. For the same molecule, the “NanoBRET Fold Response” value (CCR9; 1μM tracer) was 0.89, the “NanoBRET Fold Response” value (CCR5; 0.1μM tracer) was 1.31 and the “NanoBRET Fold Response” value (CCR5; 1μM tracer) was 0.98. For the same molecule, the “NanoBRET Fold Response” value (BDKRB1; 0.1μM tracer) was 1.31 and the “NanoBRET Fold Response” value (BDKRB1; 1μM tracer) was 1.20.

With CN(CCC=C1c2ccccc2CCc2ccccc21)C(=O)CCOCCOCCOCCOCCNC(=O)CCc1ccc2n1[B-](F)(F)[N+]1=C(c3ccc[nH]3)C=CC1=C2 [Amitriptyline-e-2-NB590] the “NanoBRET Fold Response” value (P2RY14; tracer at 1μM) was 1.03, the “NanoBRET Fold Response” value (CCR9; tracer at 1μM) was 0.95 and the “NanoBRET Fold Response” value (CCR5; tracer at 1μM) was 0.97.

— PMC8151276, “An Integrated Approach toward NanoBRET Tracers for Analysis of GPCR Ligand Engagement” (Molecules, 2021)
